Reference: the METLIN SMRT retention time set (Domingo-Almenara et al. 2019)

Experiment: gradient 5% acetonitrile 3 min, to 50% in 2 min, to 85% in 15 min, held 3 min, 100 µL/min
Conditions: column: Zorbax Extend-C18 2.1 x 50 mm; eluents: water / acetonitrile, 0.1% formic acid
In short: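 The system's dead and dwell volumes were 40 μL and 900 μL, with a Zorbax Extend-C18 column (2.1 × 50 mm, 1.8 μm) run at 100 μL/min in water and acetonitrile containing 0.1% formic acid each. Pure standards were analyzed in mixtures of ~100 molecules by HPLC–quadrupole time-of-flight mass spectrometry in positive and negative ionization mode. Retention time was assigned from computationally picked, manually inspected adduct peaks.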

| SMILES | RP-LC retention time |
| --- | --- |
| CCCN1CCc2cccc3c2[C@H]1Cc1ccc(O)c(O)c1-3 | 652 s |
| COC(=O)[C@H](Cc1ccc(C#Cc2ccccc2)cc1)NC(=O)C[C@H]1CCCN(C(=N)N)C1 | 772 s |
| Cc1cccc(NC(=O)N2CCC(c3nc(C(=O)N4CCCC4)c(C)o3)CC2)c1C | 781 s |
| CC1(C(=O)NCc2cccc(Br)c2)Oc2cccnc2NC1=O (stereo not given) | 730 s |
| COc1ccc(NC(=O)C2CCN(S(=O)(=O)c3cn(C(C)C)cn3)CC2)c(OC)c1 | 951 s |
| CC(Oc1ccc(=O)n(-c2ccc(F)cc2)n1)C(=O)Nc1cccc(F)c1 (stereo not given) | 793 s |
| Cc1nn(CC(=O)N2CCCCC2)c(=O)c2c(-n3cccc3)n(-c3ccc(F)cc3)nc12 | 923 s |
| C[C@H](NC(=O)Cc1cc(F)cc(F)c1)C(=O)N[C@H]1N=C(c2ccccc2)c2ccccc2N(C)C1=O | 853 s |
| CCc1ccccc1NC(=O)Cn1c(N2CCOCC2)nc(C)cc1=O | 674 s |
| OC(CN1CCN(c2cccc(Cl)c2)CC1)c1ccc2c(c1)OCO2 (stereo not given) | 690 s |
| Cc1cc(S(=O)(=O)N2CCC(n3c(-c4ccco4)nc4cccnc43)C2)ccc1F (stereo not given) | 827 s |
| Cn1cc(CN2CCN(C(=O)c3cc(-c4cccs4)[nH]n3)CC2)c2ccccc21 | 664 s |
| COc1cc(OC)cc(N2C(=O)CC(c3ccc(OC)c(OC)c3)CC2=O)c1 | 833 s |
| Cc1cccc(-c2nc(N3CCOCC3)ncc2C(=O)O)c1 | 787 s |
| Cc1ccc(Sc2ccc(N3CCCC(C(=O)NCc4ccccc4)C3)nn2)cc1 (stereo not given) | 905 s |
| CCC(Oc1ccc(=O)n(-c2cc(Cl)ccc2C)n1)C(=O)NCCOC (stereo not given) | 698 s |
| Cc1ccc(NC(=O)C2CCCN2S(=O)(=O)c2cc3c(cc2Cl)NC(=O)CO3)c(C)c1 (stereo not given) | 868 s |
| Cc1nc(N)n(CC(=O)NCc2ccccc2)c(=O)c1C | 611 s |
| Cc1cccc(C)c1NC(=O)CSc1cc(N2CCN(c3ccccc3F)CC2)ncn1 | 1100 s |
| CCCN1C(=O)c2cc(S(=O)(=O)Nc3ccc(C)cc3F)ccc2Oc2cccnc21 | 1080 s |
| COC1C(=O)N(C2CCN(C(=O)c3sc(C)nc3C)CC2)C12CCOCC2 (stereo not given) | 589 s |
| Cc1cc(C)n2nc(SCC(=O)Nc3ccccc3[N+](=O)[O-])nc2n1 | 686 s |
| Cc1ccc(-c2nnc(-c3ccccc3Cl)o2)cc1S(=O)(=O)N(C)C | 999 s |

| SMILES | RP-LC retention time |
| --- | --- |
| O=C(Cn1ccc2c(SCc3ccc(F)cc3)nccc21)N1CCN(c2ccccc2)CC1 | 782 s |
| COc1ccc(N2CCN(c3cc(SCC(=O)Nc4ccc(OC)c(Cl)c4)ncn3)CC2)cc1 | 967 s |
| CCOC(=O)c1cc(S(=O)(=O)N2CCCC2C(=O)Nc2ccc(C)cc2C)cn1C (stereo not given) | 957 s |
| Cc1cc(Cl)ccc1OCC(=O)N1CCn2c(nnc2C(C)C)C1 | 665 s |
| Cc1ccc(NC(=O)Nc2c(Cl)cccc2Cl)cn1 | 905 s |
| CCOc1ccccc1-c1noc(Cn2c(=O)n(CC)c(=O)c3ccccc32)n1 | 983 s |
| Cn1nc(-c2nc(C3CC3)no2)c2c1CCN(C(=O)c1cc(F)ccc1Cl)C2 | 842 s |
| CC(C)NC(=O)c1ccc(OCC2CCN(C(=O)c3c(F)cccc3F)CC2)cc1 | 862 s |
| Cc1csc(-n2nc(C)c(CC(=O)Nc3ccccc3Cl)c2C)n1 | 1010 s |
| COc1cc(OC)c(NS(=O)(=O)c2cc(-c3cc(C(F)(F)F)on3)sc2C)cc1Cl | 1150 s |
| O=C(NCc1cccc(Br)c1)c1c(O)c2cccnc2[nH]c1=O | 1000 s |
| O=C(Nc1cccc(F)c1)c1c(O)c2cccnc2n(-c2ccccc2)c1=O | 1230 s |
| COc1cccc(-c2noc(C3CC(=O)N(c4cc(C)cc(C)c4)C3)n2)c1OC (stereo not given) | 1020 s |
| Cc1nc(C)c2c(n1)N(CC1CCCCC1)C(=O)CC2 | 730 s |
| CCc1ccc(NC(=O)Cn2c(N3CCOCC3)nc(CC)cc2=O)cc1 | 747 s |
| O=C(CCc1nc(N2CCCCC2)c2c(-c3ccc(F)cc3)noc2n1)N1CCOCC1 | 902 s |
| COCCn1cc(C(=O)Nc2ccc(C(C)=O)cc2)c2nn(-c3ccccc3)c(=O)c-2c1 | 865 s |
| C1CCc2nc3c(nc2C1)CCCC3 | 722 s |
| CCc1nc2sc(C(C)C)nn2c1S(=O)(=O)N1CCCCC1 | 1020 s |
| CC(C(=O)N1CCN(c2ccccn2)CC1)n1c2ccccc2c2cnn(C)c(=O)c21 (stereo not given) | 627 s |
| CNC(=O)Nc1ccc(C2(C(=O)Nc3cc(C)cc(C)c3)CCC2)cc1 | 822 s |
| CC1=C(c2ccc(C)cc2)S(=O)(=O)N=C1N1CCCN(C(=O)Nc2ccccc2)CC1 | 846 s |
